Measured values as given in ChEMBL document CHEMBL1201862, “PubChem BioAssay data set” (2004).
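Method: 48-hour compound exposure of cells in 96-well plates, five concentrations, linear interpolation of endpoints. GI50 is the concentration that inhibits growth by half.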 Active and inactive are the calls of the source. No stated cut-off is given here; in the data, active = GI50 up to about 1.1 µM and inactive = higher.

Tests used:
Test in all cases: NCI anticancer screen, dose series, 48 h
MOLT-4 = test system: MOLT-4
M14 = test system: M14
OVCAR-8 = test system: OVCAR-8
SNB-19 = test system: SNB-19
SF-539 = test system: SF-539
SW-620 = test system: SW-620
HCC 2998 = test system: HCC 2998
SF-295 = test system: SF-295
OVCAR-3 = test system: OVCAR-3
SNB-75 = test system: SNB-75
786-0 = test system: 786-0
ACHN = test system: ACHN
LOX IMVI = test system: LOX IMVI
U-251 = test system: U-251
SK-MEL-2 = test system: SK-MEL-2
K562 = test system: K562
DU-145 = test system: DU-145
IGROV-1 = test system: IGROV-1
MCF7 = test system: MCF7
MDA-MB-231 = test system: MDA-MB-231

Measured: GI50

CCOC1(OCC)C2C=CC1C(COS(=O)(=O)c1ccc(C)cc1)C2COS(=O)(=O)c1ccc(C)cc1 (stereo not given)
inactive: MOLT-4 11.9 µM | M14 26.8 µM | OVCAR-8 40.9 µM | SNB-19 33.8 µM | SF-539 41.4 µM | SW-620 36.3 µM | HCC 2998 38.3 µM | SF-295 96.6 µM | OVCAR-3 22.5 µM | SNB-75 24.8 µM | 786-0 33.3 µM | ACHN 33.7 µM | LOX IMVI 24.9 µM | U-251 29.9 µM | SK-MEL-2 28.7 µM | K562 20.5 µM | DU-145 39.8 µM | IGROV-1 43.1 µM | MCF7 30.2 µM | MDA-MB-231 22.1 µM

CNC1C(O)C(NC)C2OC3(O)C(=O)CC(C)OC3OC2C1O (stereo not given)
inactive: MOLT-4 > 100 µM | M14 > 100 µM | OVCAR-8 > 100 µM | SNB-19 > 100 µM | SF-539 > 100 µM | SW-620 > 100 µM | HCC 2998 > 100 µM | SF-295 > 100 µM | OVCAR-3 > 100 µM | SNB-75 > 100 µM | 786-0 > 100 µM | ACHN > 100 µM | LOX IMVI > 100 µM | U-251 > 100 µM | SK-MEL-2 > 100 µM | K562 > 100 µM | DU-145 > 100 µM | IGROV-1 > 100 µM | MCF7 > 100 µM | MDA-MB-231 > 100 µM

CC(=O)CC(O)(C(F)(F)Cl)C(F)(F)Cl
inactive: MOLT-4 > 10 µM | M14 > 10 µM | OVCAR-8 > 10 µM | SNB-19 > 10 µM | SF-539 > 10 µM | SW-620 > 10 µM | HCC 2998 > 10 µM | SF-295 > 10 µM | OVCAR-3 > 10 µM | SNB-75 > 10 µM | 786-0 > 10 µM | ACHN > 10 µM | LOX IMVI > 10 µM | U-251 > 10 µM | SK-MEL-2 > 10 µM | K562 > 10 µM | DU-145 > 10 µM | IGROV-1 > 10 µM | MCF7 > 10 µM | MDA-MB-231 > 10 µM

Cc1cccc2c1c(=O)c1c(O)cc3c(c1n2C)C=CC(C)(C)O3
inactive: MOLT-4 > 100 µM | M14 > 100 µM | OVCAR-8 > 100 µM | SNB-19 > 100 µM | SF-539 > 100 µM | SW-620 > 100 µM | HCC 2998 > 100 µM | SF-295 > 100 µM | OVCAR-3 > 100 µM | SNB-75 > 100 µM | 786-0 > 100 µM | ACHN > 100 µM | LOX IMVI > 100 µM | U-251 > 100 µM | SK-MEL-2 > 100 µM | K562 18.1 µM | DU-145 > 100 µM | IGROV-1 62.7 µM | MCF7 > 100 µM | MDA-MB-231 > 100 µM

O=C(Cl)C1=C(c2ccccc2)C1c1ccccc1 (stereo not given)
inactive: MOLT-4 > 100 µM | M14 > 100 µM | OVCAR-8 > 100 µM | SNB-19 > 100 µM | SF-539 > 100 µM | SW-620 > 100 µM | HCC 2998 > 100 µM | SF-295 > 100 µM | OVCAR-3 > 100 µM | SNB-75 > 100 µM | 786-0 > 100 µM | ACHN > 100 µM | LOX IMVI > 100 µM | U-251 > 100 µM | SK-MEL-2 > 100 µM | K562 > 100 µM | DU-145 > 100 µM | IGROV-1 > 100 µM | MCF7 > 100 µM | MDA-MB-231 > 100 µM

Cc1ccc(-n2c(C)n[nH]c2=O)cc1
inactive: MOLT-4 > 100 µM | M14 > 100 µM | OVCAR-8 > 100 µM | SNB-19 > 100 µM | SF-539 > 100 µM | SW-620 > 100 µM | HCC 2998 > 100 µM | SF-295 > 100 µM | OVCAR-3 > 100 µM | SNB-75 > 100 µM | 786-0 > 100 µM | ACHN > 100 µM | LOX IMVI > 100 µM | U-251 > 100 µM | SK-MEL-2 > 100 µM | K562 > 100 µM | DU-145 > 100 µM | IGROV-1 > 100 µM | MCF7 > 100 µM | MDA-MB-231 > 100 µM

CC(=O)C1=C(C)N(c2ccccc2)C2(O)C3=C(C(=O)c4ccccc4C3=O)C(O)=CC12Cl (stereo not given)
inactive: MOLT-4 3.13 µM | M14 7.03 µM | OVCAR-8 4.08 µM | SNB-19 5.36 µM | SF-539 4.09 µM | SW-620 3.89 µM | HCC 2998 4.63 µM | SF-295 11.1 µM | OVCAR-3 4.2 µM | SNB-75 4.28 µM | 786-0 4.63 µM | ACHN 5.11 µM | LOX IMVI 3.56 µM | U-251 4.76 µM | SK-MEL-2 5.07 µM | K562 6.04 µM | DU-145 11.2 µM | IGROV-1 2.71 µM | MCF7 3.61 µM | MDA-MB-231 10.7 µM
